Assay results as given in PMC5460289, “Identification of New Shikonin Derivatives as Antitumor Agents Targeting STAT3 SH2 Domain” (Scientific Reports, 2017).

How the values were obtained:
[1] = MTT anti-proliferation assay, non-tumorigenic cells; type: cell-based; settings: human, non-tumorigenic MCF-10A cells, 24 h treatment
Procedure: Initial experiments were performed for evaluation of growth inhibition by the new compounds against six human breast cancer cell lines, including MCF-7 (ER+/PR+, HER-2-), BT474 (ER+/PR+, HER-2+), SKBR-3 (ER-/PR-/HER-2+), MDA-MB-436 (ER-/PR-/HER-2-), MDA-MB-231 (ER-/PR-/HER-2-), MDA-MB-468 (ER-/PR-/HER-2-) and non-tumorigenic MCF-10A cells. After 24 h treatment by the obtained compounds, the inhibition was assessed and the IC50 was summarized. […] Subsequently, the inhibition of STAT3 activation by PMM-172 and Stattic was evaluated using a dual-luciferase assay.
The anti-proliferative activities of the prepared compounds against MCF-7 (ER+/PR+, HER-2-), BT474 (ER+/PR+, HER-2+), SKBR-3 (ER-/PR-/HER-2+), MDA-MB-436 (ER-/PR-/HER-2-), MDA-MB-231 (ER-/PR-/HER-2-), MDA-MB-468 (ER-/PR-/HER-2-) and non-tumorigenic MCF-10A cell lines were evaluated using a standard (MTT)-based colorimetric assay with some modification. Cell lines were grown to log phase in DMEM supplemented with 10% fetal bovine serum. Cell suspensions were prepared and 100 μL/well dispensed into 96-well plates giving 10^4 cells/well. The subsequent incubation was permitted at 37 °C, 5% CO2 atmosphere for 24 h to allow the cells to reattach. Subsequently, cells were treated with the target compounds at increasing concentrations in the presence of 10% FBS for 24 h. Then, cell viability was assessed by the conventional 3-(4, 5-dimethylthiazol-2-yl)-2, 5-diphenyltetrazolium bromide (MTT) reduction assay and carried out strictly according to the manufacturer instructions. The absorbance (OD570) was read on an ELISA reader (Tecan, Austria). In all experiments, three replicate wells were used for each drug concentration. Each assay was carried out for at least three times.

[2] = tested on: Bcl-2, Bcl-xL, survivin and cyclin D1 in MDA-MB-231 cells; test: Western blot of STAT3 downstream target genes expression; type: cell-based, human; settings: MDA-MB-231, 24 h
Procedure: Figure 7 MDA-MB-231 cells were treated with indicated concentrations of PMM-172 or Stattic for 24 h, the expression levels of STAT3 in cytoplasmic and nuclear extracts were examined and relative expression levels were analyzed by Image J software. β-actin and Lamin B1 served as markers of cytoplasmic and nuclear extractions, respectively. […] (C) MCF-10A cells were treated with the indicated concentrations of PMM-172 for 24 h. PMM-172 had no effect on the level of the pSTAT3 level in MCF-10A cells. […] Data were shown as mean ± SD from three independent experiments, **P < 0.01. Cropped blots/gels were used in the figure and the gels had been run under the same experimental conditions; the full-length blots/gels are presented in Supplementary Figure S3.
STAT3 target genes are vital to the dysfunctional biology processes induced by the aberrantly activated STAT3. Therefore, we investigated whether PMM-172 suppresses the expression of STAT3-regulated genes related to cell survival, proliferation and apoptosis in MDA-MB-231 cells.
Cells were rinsed twice with cold PBS and then lysed with RIPA buffer containing a protease inhibitor mixture at 1:100 dilution on ice for 30 min. Insoluble components of cell lysates were removed by centrifugation (4 °C, 12000 rmp, 10 min), and protein concentrations were measured using a Pierce BCA protein assay kit. […]

[3] = tested on: PARP and caspase 3 cleavage in MDA-MB-231 cells; test: Western blot of PARP and caspase 3 cleavage; type: cell-based, human; settings: MDA-MB-231, 24 h treatment
Procedure: To determine whether PMM-172 induced apoptosis, Annexin V/PI double staining assay was conducted. MDA-MB-231 cells were treated with various concentrations of PMM-172 for 24 h, and the percentage of apoptotic cells was markedly elevated in a dose-dependent manner. Likewise, MDA-MB-231 cells were treated with corresponding doses of Stattic. […] The percentages of cell apoptosis 3.12%, 8.12%, 16.81%, 62.74% corresponded to the concentration of PMM-172 0, 2, 4 and 8 μM, respectively, including both the early and the late apoptotic cells. Clearly, PMM-172 can cause cell apoptosis more effectively than Stattic. Moreover, an extend time-course apoptosis analysis of MDA-MB-231 cells treated with 4 μM PMM-172 was carry out. […] To further assess the pro-apoptotic effect of PMM-172, we evaluated the cleavage of poly (ADP-ribose) polymerase (PARP) and caspase 3 in MDA-MB-231 cells after 24 h treatment with PMM-172. […]
Figure 4 The effect of PMM-172 on the cell apoptosis of MDA-MB-231 cells. […] Apoptosis was analyzed by flow cytometry by using Annexin V/PI double staining. […] (E) PARP and caspase 3 cleavage in MDA-MB-231 cells after treated with various concentrations of PMM-172 for 24 h were detected by using Western blot analysis. The relative expression level was analyzed by Image J software. […]

COc1cc(OC)cc(-c2nnc(SCC(=O)O[C@H](CC=C(C)C)C3=CC(=O)c4c(O)ccc(O)c4C3=O)o2)c1 [PMM-172, (R)-1-(5,8-dihydroxy-1,4-dioxo-1,4-dihydronaphthalen-2-yl)-4-methylpent-3-en-1-yl 2-((5-(3,5-dimethoxyphenyl)-1,3,4-oxadiazol-2-yl)thio)acetate]
CC50 at 24 h [1]: 95.4 ± 0.62 µM | expression of STAT3 target genes Bcl-2, Bcl-xL, survivin and cyclin D1 [2]: down-regulated the expression of Bcl-2, Bcl-xL, survivin and cyclin D1 in a dose-dependent manner | PARP and caspase 3 cleavage [3]: could induce PARP and caspase 3 cleavage
